Reference: patent publication US20240116985A1, “STAPLED PEPTIDES AND METHODS THEREOF” (priority 2020, published 2024)
Values after ≈ are worked out from the molar mass of the structure shown. Like-named read-outs stand apart in the source and are kept apart here.

Experiments:
[1] = biological target: T1, full-length beta-Catenin (Uniprot ID P35222) (Homo sapiens, UniProt P35222); assay: Fluorescence polarization IC50 (beta-catenin / 5FAM-TCF4 10-53 competition); type: binding
T1 construct: 10 nM full-length beta-Catenin (Uniprot ID P35222)
T1 sequence (P35222 1-781): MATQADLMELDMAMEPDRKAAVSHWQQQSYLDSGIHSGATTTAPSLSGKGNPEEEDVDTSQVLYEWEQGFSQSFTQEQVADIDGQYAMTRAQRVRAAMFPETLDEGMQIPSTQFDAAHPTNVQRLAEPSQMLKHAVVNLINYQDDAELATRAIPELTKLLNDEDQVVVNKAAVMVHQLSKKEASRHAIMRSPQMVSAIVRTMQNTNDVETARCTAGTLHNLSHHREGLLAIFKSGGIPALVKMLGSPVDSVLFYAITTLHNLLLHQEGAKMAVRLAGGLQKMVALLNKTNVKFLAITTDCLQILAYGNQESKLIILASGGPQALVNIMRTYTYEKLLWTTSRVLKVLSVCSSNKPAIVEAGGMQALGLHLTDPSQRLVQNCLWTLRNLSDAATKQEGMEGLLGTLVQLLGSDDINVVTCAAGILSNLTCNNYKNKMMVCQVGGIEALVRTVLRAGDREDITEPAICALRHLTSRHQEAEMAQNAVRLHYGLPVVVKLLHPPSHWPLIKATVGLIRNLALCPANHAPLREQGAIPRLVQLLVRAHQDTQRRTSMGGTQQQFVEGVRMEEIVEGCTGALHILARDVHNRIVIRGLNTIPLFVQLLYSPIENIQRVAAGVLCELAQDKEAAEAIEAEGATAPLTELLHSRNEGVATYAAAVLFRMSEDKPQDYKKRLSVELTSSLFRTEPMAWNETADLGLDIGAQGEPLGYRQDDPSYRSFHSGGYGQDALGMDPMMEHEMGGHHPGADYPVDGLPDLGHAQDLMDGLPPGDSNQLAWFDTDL

CHI Log D procedure = type: physicochemical; details: for CHI Log D: pH 7.4
Solubility in PBS = type: physicochemical
Summary of the method: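 HPLC quantitation of peptide remaining in the PBS supernatant after ultracentrifugation, referenced to a 50 μM solution in DMSO.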

[2] = biological target: T2, beta-catenin/TCF4 engagement (Homo sapiens, UniProt P35222); assay: Nano-BRET target engagement assay (B-cat-Halo & TCF4-Luc in HEK293 cells); type: cell-based; details: for IC50: absolute IC50, read-out: NanoBRET Abs IC50
T2 construct: expressed in transfected cells; host or cells: HEK293
T2 sequence (P35222 1-781): T1 sequence (P35222 1-781)

[3] = fluorescence polarization, read-out: beta-Catenin FP IC50

Row | Structure (SMILES) | IC50 [1, 3] [nM] | IC50 ([1]; read-out: FP EC50) [nM] | CHI Log D (CHI Log D procedure) | Solubility (Solubility in PBS) [µM] | IC50 [2] [nM] | chromatographic logD (CHI Log D procedure; pH 7.4, CHI Log D) | Solubility (Solubility in PBS; Solubility (uM)) [µM] | inhibition at 10 µM ([2]; HEK293, @ 10 uM, read-out: NanoBRET % inh @ 10 uM) [%]
1 | CC(=O)N1CCC[C@]12CC=CCCCC1(CCCC=CCCCCCC[C@@](C)(C(=O)N[C@@H](Cc3ccccc3)C(=O)N[C@@H](Cc3csc4ccccc34)C(=O)N[C@@H](CCC(N)=O)C(N)=O)NC(=O)[C@H](CC(N)=O)NC(=O)[C@H](Cc3ccccc3)NC(=O)[C@H](C)NC(=O)[C@H](C)NC(=O)[C@H](CC(=O)O)NC(=O)[C@H](CC(=O)O)NC1=O)NC(=O)[C@H](CCC(C)C)NC(=O)[C@H](CC(=O)O)NC2=O (stereo partly drawn) [I-548, Ac-PL3-Asp-hLeu-B5-Asp-Asp-Ala-Ala-Phe-Asn-S8-Phe-BztA-Gln-NH2] | 17 | 17 | 2.528 | 50 (≈ 93.5 µg/mL) | 15600 |  |  | 
2 | CC(=O)N1CCC[C@]12CC=CCCCC1(CCCC=CCCCCCC[C@@](C)(C(=O)N[C@@H](Cc3ccccc3)C(=O)N[C@@H](Cc3csc4ccccc34)C(=O)N[C@@H](Cc3c[nH]cn3)C(N)=O)NC(=O)[C@H](CC(N)=O)NC(=O)[C@H](Cc3ccccc3)NC(=O)[C@H](C)NC(=O)[C@H](C)NC(=O)[C@H](CC(=O)O)NC(=O)[C@H](CC(=O)O)NC1=O)NC(=O)[C@H](CC(C)C)NC(=O)[C@H](CC(=O)O)NC2=O (stereo partly drawn) [I-564, Ac-PL3-Asp-Leu-B5-Asp-Asp-Ala-Ala-Phe-Asn-S8-Phe-BztA-His-NH2] | 36 | 36 | 2.374 | 47 (≈ 87.6 µg/mL) | > 20000 |  |  | 
3 | CC(=O)N1CCC[C@]12CC=CCCCC1(CCCC=CCCCCCC[C@@](C)(C(=O)N[C@@H](Cc3ccccc3)C(=O)N[C@@H](Cc3csc4ccccc34)C(=O)N[C@@H](Cc3c[nH]cn3)C(N)=O)NC(=O)[C@H](CC(N)=O)NC(=O)[C@H](Cc3ccccc3)NC(=O)[C@H](C)NC(=O)[C@H](C)NC(=O)[C@H](CC(=O)O)NC(=O)[C@H](CC(=O)O)NC1=O)NC(=O)[C@H](CC(C)C)NC(=O)[C@H](CC(=O)O)NC2=O (stereo partly drawn) [I-565, Ac-PL3-Asp-Leu-B5-Asp-Asp-Ala-Ala-Phe-Asn-S8-Phe-BztA-His-NH2] | 13 | 13 | 2.435 | 26 (≈ 48.5 µg/mL) | 26000 |  |  | 
4 | CC[C@@H]1NC(=O)[C@H](CC(=O)O)NC(=O)[C@]2(CC=CCCCC3(CCCC=CCCCCCC[C@@](C)(C(=O)N[C@@H](Cc4ccccc4)C(=O)N[C@@H](Cc4csc5ccccc45)C(=O)N[C@@H](Cc4c[nH]cn4)C(N)=O)NC(=O)[C@H](CCC(N)=O)NC(=O)[C@H](Cc4ccccc4)NC(=O)[C@H](C)NC(=O)[C@H](C)NC(=O)[C@H](CCC(=O)O)NC(=O)[C@H](CC(=O)O)NC3=O)NC1=O)CCCN2C(C)=O (stereo partly drawn) [I-571, Ac-PL3-Asp-Abu-B5-Asp-Glu-Ala-Ala-Phe-Gln-S8-Phe-BztA-His-NH2] | 32 | 32 | 2.245 | 24 (≈ 44.7 µg/mL) | 15600 |  |  | 
5 | CC[C@@H]1NC(=O)[C@H](CC(=O)O)NC(=O)[C@]2(CC=CCCCC3(CCCC=CCCCCCC[C@@](C)(C(=O)N[C@@H](Cc4ccccc4)C(=O)N[C@@H](Cc4csc5ccccc45)C(=O)N[C@@H](CCC(N)=O)C(N)=O)NC(=O)[C@H](CC(N)=O)NC(=O)[C@H](Cc4ccccc4)NC(=O)[C@H](C)NC(=O)[C@H](C)NC(=O)[C@H](CC(=O)O)NC(=O)[C@H](CC(=O)O)NC3=O)NC1=O)CCCN2C(C)=O (stereo partly drawn) [I-573, Ac-PL3-Asp-Abu-B5-Asp-Asp-Ala-Ala-Phe-Asn-S8-Phe-BztA-Gln-NH2] | 36 | 36 | 2.116 | 49 (≈ 89.5 µg/mL) | 33300 |  |  | 
6 | CC(=O)N1CCC[C@]12CC=CCCCC1(CCCC=CCCCCCC[C@@](C)(C(=O)N[C@@H](Cc3ccccc3)C(=O)N[C@@H](Cc3csc4ccccc34)C(=O)N[C@@H](CCC(N)=O)C(N)=O)NC(=O)[C@H](CC(N)=O)NC(=O)[C@H](Cc3ccccc3)NC(=O)[C@H](C)NC(=O)[C@H](C)NC(=O)[C@H](CCC(=O)O)NC(=O)[C@H](CC(=O)O)NC1=O)NC(=O)[C@H](CC(C)C)NC(=O)[C@H](CC(=O)O)NC2=O (stereo partly drawn) [I-576, Ac-PL3-Asp-Leu-B5-Asp-Glu-Ala-Ala-Phe-Asn-S8-Phe-BztA-Gln-NH2] | 23 | 23 | 2.348 | 46 (≈ 86 µg/mL) | 11100 |  |  | 
7 | CC(=O)N1CCC[C@]12CC=CCCCC1(CCCC=CCCCCCC[C@@](C)(C(=O)N[C@@H](Cc3ccccc3)C(=O)N[C@@H](Cc3csc4ccccc34)C(=O)N[C@@H](CCC(N)=O)C(N)=O)NC(=O)[C@H](CC(N)=O)NC(=O)[C@H](Cc3ccccc3)NC(=O)[C@H](C)NC(=O)[C@H](C)NC(=O)[C@H](CCC(=O)O)NC(=O)[C@H](CC(=O)O)NC1=O)NC(=O)[C@H](CC(C)C)NC(=O)[C@H](CC(=O)O)NC2=O (stereo partly drawn) [I-577, Ac-PL3-Asp-Leu-B5-Asp-Glu-Ala-Ala-Phe-Asn-S8-Phe-BztA-Gln-NH2] | 13 | 13 | 2.376 | 47 (≈ 87.9 µg/mL) | 10400 |  |  | 

Further molecules by falling IC50 [1, 3], results first:

Row | IC50 [1, 3] [nM] | IC50 ([1]; read-out: FP EC50) [nM] | CHI Log D (CHI Log D procedure) | Solubility (Solubility in PBS) [µM] | IC50 [2] [nM] | chromatographic logD (CHI Log D procedure; pH 7.4, CHI Log D) | Solubility (Solubility in PBS; Solubility (uM)) [µM] | inhibition at 10 µM ([2]; HEK293, @ 10 uM, read-out: NanoBRET % inh @ 10 uM) [%] | Structure (SMILES)
8 | 37 | 37 | 2.243 | 50 (≈ 92.1 µg/mL) |  |  |  | 8.9 | CC(=O)N1CCC[C@]12CC=CCCCC1(CCCC=CCCCCCC[C@@](C)(C(=O)N[C@@H](Cc3ccccc3)C(=O)N[C@@H](Cc3csc4ccccc34)C(=O)N[C@@H](CCC(N)=O)C(N)=O)NC(=O)[C@H](CC(N)=O)NC(=O)[C@H](Cc3ccccc3)NC(=O)[C@H](C)NC(=O)[C@H](C)NC(=O)[C@H](CC(=O)O)NC(=O)[C@H](CC(=O)O)NC1=O)NC(=O)[C@H](C(C)C)NC(=O)[C@H](CC(=O)O)NC2=O (stereo partly drawn) [I-567, Ac-PL3-Asp-Val-B5-Asp-Asp-Ala-Ala-Phe-Asn-S8-Phe-BztA-Gln-NH2]
9 | 36 | 36 | 2.16 | 48 (≈ 88.1 µg/mL) | > 20000 |  |  |  | CC[C@@H]1NC(=O)[C@H](CC(=O)O)NC(=O)[C@]2(CC=CCCCC3(CCCC=CCCCCCC[C@@](C)(C(=O)N[C@@H](Cc4ccccc4)C(=O)N[C@@H](Cc4csc5ccccc45)C(=O)N[C@@H](Cc4c[nH]cn4)C(N)=O)NC(=O)[C@H](CC(N)=O)NC(=O)[C@H](Cc4ccccc4)NC(=O)[C@H](C)NC(=O)[C@H](C)NC(=O)[C@H](CC(=O)O)NC(=O)[C@H](CC(=O)O)NC3=O)NC1=O)CCCN2C(C)=O (stereo partly drawn) [I-574, Ac-PL3-Asp-Abu-B5-Asp-Asp-Ala-Ala-Phe-Asn-S8-Phe-BztA-His-NH2]
10 | 35 |  |  |  | 16900 | 2.39 | 47 (≈ 87.9 µg/mL) |  | CC[C@H](C)[C@@H]1NC(=O)[C@H](CC(=O)O)NC(=O)[C@]2(CC=CCCCC3(CCCC=CCCCCCC[C@@](C)(C(=O)N[C@@H](Cc4ccccc4)C(=O)N[C@@H](Cc4csc5ccccc45)C(=O)N[C@@H](CCC(N)=O)C(N)=O)NC(=O)[C@H](CC(N)=O)NC(=O)[C@H](Cc4ccccc4)NC(=O)[C@H](C)NC(=O)[C@H](C)NC(=O)[C@H](CCC(=O)O)NC(=O)[C@H](CC(=O)O)NC3=O)NC1=O)CCCN2C(C)=O (stereo partly drawn) [I-557, Ac-PL3-Asp-Ile-B5-Asp-Glu-Ala-Ala-Phe-Asn-S8-Phe-BztA-Gln-NH2]
11 | 30 | 30 | 2.343 | 50 (≈ 94.3 µg/mL) | 21400 |  |  |  | CC[C@H](C)[C@@H]1NC(=O)[C@H](CC(=O)O)NC(=O)[C@]2(CC=CCCCC3(CCCC=CCCCCCC[C@@](C)(C(=O)N[C@@H](Cc4ccccc4OC)C(=O)N[C@@H](Cc4csc5ccccc45)C(=O)N[C@@H](CCC(N)=O)C(N)=O)NC(=O)[C@H](CC(N)=O)NC(=O)[C@H](Cc4ccccc4)NC(=O)[C@H](C)NC(=O)[C@H](C)NC(=O)[C@H](CC(=O)O)NC(=O)[C@H](CC(=O)O)NC3=O)NC1=O)CCCN2C(C)=O (stereo partly drawn) [I-550, Ac-PL3-Asp-Ile-B5-Asp-Asp-Ala-Ala-Phe-Asn-S8-2OMeF-BztA-Gln-NH2]
12 | 19 | 19 | 2.317 | 50 (≈ 92.8 µg/mL) | 15700 |  |  |  | CC(=O)N1CCC[C@]12CC=CCCCC1(CCCC=CCCCCCC[C@@](C)(C(=O)N[C@@H](Cc3ccccc3)C(=O)N[C@@H](Cc3csc4ccccc34)C(=O)N[C@@H](CCC(N)=O)C(N)=O)NC(=O)[C@H](CC(N)=O)NC(=O)[C@H](Cc3ccccc3)NC(=O)[C@H](C)NC(=O)[C@H](C)NC(=O)[C@H](CC(=O)O)NC(=O)[C@H](CC(=O)O)NC1=O)NC(=O)[C@H](CC(C)C)NC(=O)[C@H](CC(=O)O)NC2=O (stereo partly drawn) [I-563, Ac-PL3-Asp-Leu-B5-Asp-Asp-Ala-Ala-Phe-Asn-S8-Phe-BztA-Gln-NH2]
